Here are results for two compounds from patent US11434289B2, “Anti-GPR20 antibody and anti-GPR20 antibody-drug conjugate” (DAIICHI SANKYO COMPANY, LIMITED, priority 2017, dated 2022).

One experiment has as its system GIST074. Put plainly: Antitumor effect in subcutaneously GIST074-transplanted nude mouse models (regorafenib-unresponsive patient tumor). It counts as in vivo, BALB/c nude mice. Particulars: orally once a day; imatinib 90, sunitinib 30, regorafenib 4 mg/kg; FIG. 36. The protocol:
The antitumor effects of the antibody-drug conjugates were evaluated using animal models derived from immunodeficient mice by the transplantation of human gastrointestinal stromal tumor-derived cells. Five- to 6-week-old female BALB/c nude mice (CAnN.Cg-Foxnlnu/CrlCrlj, Charles River Laboratories Japan Inc.) were acclimatized for 4 to 7 days under SPF conditions before use in the experiment. The mice were fed with a sterilized solid diet (FR-2, Funabashi Farms Co., Ltd) and given sterilized tap water (which had been prepared by adding a 5 to 15 ppm sodium hypochlorite solution to tap water). The longest diameter and the shortest diameter of the transplanted tumor were measured once or twice a week using electronic digital calipers (CD-15CX, Mitutoyo Corp.), and the volume of the tumor was then calculated according to the following equation. Tumor volume (mm^3)=½×Longest diameter (mm)×[Shortest diameter (mm)]^2
[…] ABS buffer was administered in the same manner as above to a control group (vehicle group). Five or six mice per group were used in the experiment. […]

The test system of experiment [1] is human gastrointestinal stromal tumor cell line GIST430/654. Put plainly: Antitumor effect and combined use with sunitinib in GIST430/654-transplanted nude mouse models (imatinib resistance mutation V654A in KIT). It counts as in vivo, BALB/c nude mice. Particulars: orally once a day; imatinib 150, sunitinib 40 mg/kg; FIG. 37.
Experimental: The effect of combined use with sunitinib was evaluated in models with human gastrointestinal stromal tumor cell line GIST430/654 (obtained from Brigham Women's Hospital) having imatinib resistance mutation V654A in the KIT gene. […]

As to `CNC(=O)c1cc(Oc2ccc(NC(=O)Nc3ccc(Cl)c(C(F)(F)F)c3)c(F)c2)ccn1` [regorafenib], the tumor growth result in the experiment on GIST074 was “tumor growth was not completely suppressed”.

`Cc1ccc(NC(=O)c2ccc(CN3CCN(C)CC3)cc2)cc1Nc1nccc(-c2cccnc2)n1` [imatinib]: the tumor growth entry in the experiment on GIST074 is “tumor growth was not completely suppressed”; in experiment [1], “did not suppress tumor growth”.
